# In patent US7022736B2, “Enzyme inhibitors” (Istituto Di Ricerche Di Biologia Molecolare P Angeletti SpA, priority 1998, dated 2006):
# Read-outs that look alike come from different tables or passages of the source.
# Experiments:
# [1] = biological target: T1, HCV RdRp (NS5B RNA-dependent RNA polymerase) (Hepatitis C virus genotype 1b, UniProt P26663); experiment: Inhibition of hepatitis C virus RdRp (poly(A)/oligo(U), [3H]UTP incorporation); format: biochemical
# T1 construct: The HCV NS5B protein is the viral RdRp; made in house; host or cells: insect cells infected with recombinant baculovirus
# T1 sequence (P26663 2420-3010): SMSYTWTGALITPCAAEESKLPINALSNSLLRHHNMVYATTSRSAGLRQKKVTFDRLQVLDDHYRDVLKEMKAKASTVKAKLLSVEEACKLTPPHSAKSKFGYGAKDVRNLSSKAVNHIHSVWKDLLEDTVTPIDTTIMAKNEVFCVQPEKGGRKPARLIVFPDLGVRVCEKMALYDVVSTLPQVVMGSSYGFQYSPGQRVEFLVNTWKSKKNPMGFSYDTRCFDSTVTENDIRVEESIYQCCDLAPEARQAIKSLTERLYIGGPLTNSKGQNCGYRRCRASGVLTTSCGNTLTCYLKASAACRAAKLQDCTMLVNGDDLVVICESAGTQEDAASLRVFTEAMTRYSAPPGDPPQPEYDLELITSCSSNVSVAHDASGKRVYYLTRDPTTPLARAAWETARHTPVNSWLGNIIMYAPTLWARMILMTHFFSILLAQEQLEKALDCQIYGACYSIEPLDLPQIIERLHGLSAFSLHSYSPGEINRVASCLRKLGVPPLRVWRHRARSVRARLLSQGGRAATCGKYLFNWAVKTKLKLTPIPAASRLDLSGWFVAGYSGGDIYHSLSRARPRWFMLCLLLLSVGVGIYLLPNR
# How it was run: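 Baculovirus-expressed recombinant NS5B (20 nM) polymerised on poly(A) template (10 μg/ml) with oligo(U)12 primer, 10 μM UTP plus [3H]UTP, pH 7.5 Tris buffer with 5 mM MgCl2, 1 h at 22 °C. Acid-insoluble radioactivity counted on filters; IC50 fitted from residual activity with slope term.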
# [2] = biological target: T2, reverse transcriptase of HIV (HIV-1 RT) (Human immunodeficiency virus type 1 group M subtype B, UniProt P03366); experiment: Inhibition of HIV-1 reverse transcriptase ([3H]dTTP incorporation); format: biochemical, Human Immunodeficiency Virus-1; settings: Tables IXa-IXc; unit inferred; NA=not active as an inhibitor
# T2 construct: the reverse transcriptase of HIV (HIV -1RT) from Boehringer Mannhium; purchased Boehringer Mannheim (printed 'Boehringer Mannhium')
# Procedure: Test for Inhibition of Human Immunodeficiency Virus-1 Reverse Transcriptase
# Analogous assays employed the reverse transcriptase of HIV (HIV -1RT) from Boehringer Mannhium.
# Incorporation of radioactive dTTP was measured as follows. The standard reaction (100 μl) was carried out in a buffer containing 50 mM tris/HCl pH 8.2, 2.5 mM MgCl 2, 1 mM DTT, 80 mM KCl, 5 mM EGTA, 0.05% Triton X-100, 1 μCi[3H] dTTP (40 Ci/mmol, NEN), 10 μM […] and 10 μg/ml poly(A)/dT (from Pharmacia).
# [3] = biological target: T3, polymerase of hepatitis B virus (HBV pol) (Hepatitis B virus genotype D subtype ayw, UniProt P03156); experiment: Inhibition of hepatitis B virus polymerase (32P-dNTP incorporation, viral particles from patient sera); format: biochemical; settings: Tables IXa-IXc; unit inferred; NA=not active as an inhibitor
# T3 construct: obtained in the form of viral particles from the sera of HBV positive patients; from tissue; host or cells: sera of HBV positive patients (viral particles)
# T3 sequence (P03156 whole entry): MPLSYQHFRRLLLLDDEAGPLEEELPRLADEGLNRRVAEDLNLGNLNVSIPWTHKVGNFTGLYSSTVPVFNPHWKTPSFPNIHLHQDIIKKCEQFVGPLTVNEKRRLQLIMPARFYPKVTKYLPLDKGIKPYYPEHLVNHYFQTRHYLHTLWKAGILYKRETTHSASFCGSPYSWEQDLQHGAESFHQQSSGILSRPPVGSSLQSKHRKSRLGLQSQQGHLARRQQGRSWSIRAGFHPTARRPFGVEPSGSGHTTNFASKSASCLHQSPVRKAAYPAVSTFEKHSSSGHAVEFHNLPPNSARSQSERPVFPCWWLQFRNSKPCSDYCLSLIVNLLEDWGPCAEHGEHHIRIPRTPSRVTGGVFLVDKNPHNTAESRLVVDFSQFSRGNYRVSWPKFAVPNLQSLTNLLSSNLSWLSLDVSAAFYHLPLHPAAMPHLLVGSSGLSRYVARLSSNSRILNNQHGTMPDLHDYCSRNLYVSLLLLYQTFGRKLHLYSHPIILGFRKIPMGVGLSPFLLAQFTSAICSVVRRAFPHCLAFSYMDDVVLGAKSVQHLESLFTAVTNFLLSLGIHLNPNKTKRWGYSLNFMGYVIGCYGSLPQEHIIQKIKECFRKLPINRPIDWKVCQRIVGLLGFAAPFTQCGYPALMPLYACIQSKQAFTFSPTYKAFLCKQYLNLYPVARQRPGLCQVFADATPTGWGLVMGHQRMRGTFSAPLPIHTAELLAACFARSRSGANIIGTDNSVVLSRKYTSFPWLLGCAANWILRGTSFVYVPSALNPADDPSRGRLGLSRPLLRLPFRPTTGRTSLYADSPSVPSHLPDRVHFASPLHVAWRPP
# Procedure: Analogous assays employed the polymerase of hepatitis B virus (HBV pol), obtained in the form of viral particles from the sera of HBV positive patients. These particles contain a polymerase bound to an incomplete double stranded DNA template. In the assay the incorporation of ^32P-dNTP is measured as radioactivity incorporated in acid insoluble precipitate.
# The standard reaction (100 μl) was carried out in a buffer containing 50 mM tris/HCl pH 7.5, 30 mM MgCl 2 , 1 mM DTT, 100 mM KCl, 0.02% Triton X-100, 1 μCi[^32P] dCTP (300 Ci/mmol, NEN), 1 μM dATP, dTTP, dGTP. After 1 hour incubation at 37° C. the reaction was stopped by adding 100 μl of 20% TCA and applying samples to DE81 filters. The filters were processed and IC50 values calculated as described above.
# [4] = Tables I-VIII, 20 nM NS5B, 1 hour at 22° C., read-out: IC 50 (μM), HCV-polymerase
# [5] = Tables IXa-IXc, unit inferred, read-out: HCV (IC50)
SMILES,"IC50 [1, 4] [µM]","IC50 [1, 5] [µM]",IC50 [2] [µM],IC50 [3] [µM]
N#Cc1cccc(Cl)c1COc1cccc(C(=O)C=C(O)C(=O)O)c1 [Example 107],0.14,0.14,58,–
COc1cc(C)c(C#N)c(COc2cccc(C(=O)C=C(O)C(=O)O)c2)c1 [Example 111],0.12,0.12,80,–
N#Cc1ccccc1OCc1cccc(C(=O)C=C(O)C(=O)O)c1 [Example 112],1.33,1.33,90,–
N#Cc1ccc(Br)cc1COc1cccc(C(=O)C=C(O)C(=O)O)c1 [Example 113],0.1,0.1,90,–
O=C(O)C(O)=CC(=O)c1cccc(NS(=O)(=O)c2cc(Cl)cc(Cl)c2)c1 [Example 117],0.14,0.14,100,–
O=C(O)C(O)=CC(=O)c1cccc(NS(=O)(=O)c2c(Cl)cccc2Cl)c1 [Example 120],0.36,0.36,80,–
N#Cc1c(Cl)cc(Cl)cc1COc1cccc(C(=O)C=C(O)C(=O)O)c1 [Example 126],0.056,0.056,100,–
O=C(O)C(O)=CC(=O)c1cc(O)cc(OCc2ccccc2)c1 [Example 155],1.4,1.4,130,–
Cc1ccc(C(=O)C=C(O)C(=O)O)cc1 [Example 161],2.8,2.8,320,–
O=C(O)C(O)=CC(=O)c1ccc(-c2ccccc2)s1 [Example 196],15,15,50,9
O=C(O)C(O)=CC(=O)c1ccc(Cc2ccccc2)s1 [Example 202],68,70,> 100,9
O=C(O)C(O)=CC(=O)c1ccc(Cc2cccc(F)c2)s1 [Example 205],74,74,–,3.3
O=C(O)C(O)=CC(=O)c1ccc(Cc2ccc(F)cc2)s1 [Example 206],65,65,–,2
O=C(O)C(O)=CC(=O)c1ccc(-c2ccc(F)c(Cl)c2)o1 [Example 218],41.2,41.2,11.8,–
Cc1sc(-c2ccccc2)cc1C(=O)C=C(O)C(=O)O [Example 225],167,167,86,4
O=C(O)C(O)=CC(=O)C12CC3CC(CC(C3)C1)C2 [Example 243],6.7,6.7,26.8,–
O=C(O)C(O)=CC(=O)c1ccc(-c2cc(Cl)cc(Cl)c2)o1 [Example 258],–,> 100,3.6,–
